Experimental data as given in ChEMBL document CHEMBL1201862, “PubChem BioAssay data set” (2004).
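Values below derive from 48-hour exposures of cells grown in 96-well plates, with endpoints linearly interpolated between the two concentrations bracketing the appropriate inhibition level. At the GI50, growth is halved.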 Active and inactive are the calls of the source. No stated cut-off is given here; in the data, active = GI50 up to about 1.1 µM and inactive = higher.

What was measured:
Assay in all cases: NCI tumour cell line growth inhibition, 48 h
A549 = tested on: A549
COLO 205 = tested on: COLO 205
HCT-116 = tested on: HCT-116
LOX IMVI = tested on: LOX IMVI
MOLT-4 = tested on: MOLT-4
NCI-H226 = tested on: NCI-H226
NCI-H522 = tested on: NCI-H522
OVCAR-3 = tested on: OVCAR-3
OVCAR-8 = tested on: OVCAR-8
SK-MEL-2 = tested on: SK-MEL-2
SK-MEL-5 = tested on: SK-MEL-5
SN12C = tested on: SN12C
SW-620 = tested on: SW-620
TK-10 = tested on: TK-10
U-251 = tested on: U-251
UO-31 = tested on: UO-31
KM12 = tested on: KM12
Malme-3M = tested on: Malme-3M
SF-539 = tested on: SF-539
UACC-62 = tested on: UACC-62

Compound	GI50 (A549)	GI50 (COLO 205)	GI50 (HCT-116)	GI50 (LOX IMVI)	GI50 (MOLT-4)	GI50 (NCI-H226)	GI50 (NCI-H522)	GI50 (OVCAR-3)	GI50 (OVCAR-8)	GI50 (SK-MEL-2)	GI50 (SK-MEL-5)	GI50 (SN12C)	GI50 (SW-620)	GI50 (TK-10)	GI50 (U-251)	GI50 (UO-31)	GI50 (KM12)	GI50 (Malme-3M)	GI50 (SF-539)	GI50 (UACC-62)
CC(=O)OC(OC(C)=O)n1cc(C=O)c2ccccc21	> 100 µM (inactive)	> 100 µM (inactive)	> 100 µM (inactive)	> 100 µM (inactive)	> 100 µM (inactive)	> 100 µM (inactive)	> 100 µM (inactive)	> 100 µM (inactive)	> 100 µM (inactive)	> 100 µM (inactive)	> 100 µM (inactive)	> 100 µM (inactive)	> 100 µM (inactive)	> 100 µM (inactive)	> 100 µM (inactive)	63.5 µM (inactive)				
C[N+](C)([O-])CCOc1cc2c(c3ccccc13)-c1ccccc1C2=O	23.3 µM (inactive)	16.3 µM (inactive)	6.25 µM (inactive)	4.31 µM (inactive)	3.46 µM (inactive)	15.7 µM (inactive)	10.2 µM (inactive)	11.7 µM (inactive)	6.27 µM (inactive)	18.4 µM (inactive)	14.4 µM (inactive)	9.08 µM (inactive)	12.3 µM (inactive)		13.3 µM (inactive)	17.8 µM (inactive)	13.6 µM (inactive)	14 µM (inactive)	15.1 µM (inactive)	14.4 µM (inactive)
CC(=O)C1CC[C@@H]2[C@H](CC[C@]3(C)[C@@H](O)CC[C@@H]23)[C@H]1C(=O)O (some centres not stated)	> 100 µM (inactive)	> 100 µM (inactive)			> 100 µM (inactive)		> 100 µM (inactive)	> 100 µM (inactive)	> 100 µM (inactive)	> 100 µM (inactive)	> 100 µM (inactive)		> 100 µM (inactive)	> 100 µM (inactive)	> 100 µM (inactive)	> 100 µM (inactive)	> 100 µM (inactive)	> 100 µM (inactive)	> 100 µM (inactive)	> 100 µM (inactive)
CN(C)CCCn1c(-c2cc(C(C)(C)C)c(O)c(C(C)(C)C)c2)cs/c1=N\c1ccccc1	1.77 µM (inactive)				0.131 µM (active)	1.98 µM (inactive)		1.61 µM (inactive)	1.97 µM (inactive)	3.06 µM (inactive)		2.08 µM (inactive)	76.6 µM (inactive)	1.95 µM (inactive)	2.93 µM (inactive)	1.97 µM (inactive)	1.91 µM (inactive)		1.75 µM (inactive)	2.3 µM (inactive)
CN(C)C(=S)/N=c1\ssc(=S)n1C	> 100 µM (inactive)		> 100 µM (inactive)		> 100 µM (inactive)	> 100 µM (inactive)	> 100 µM (inactive)		> 100 µM (inactive)	> 100 µM (inactive)	> 100 µM (inactive)	> 100 µM (inactive)	> 100 µM (inactive)	> 100 µM (inactive)	> 100 µM (inactive)	> 100 µM (inactive)	> 100 µM (inactive)	> 100 µM (inactive)	> 100 µM (inactive)	> 100 µM (inactive)
O=[N+]([O-])c1ccc2[nH]c3c(-c4ccccc4)nccc3c2c1	15.6 µM (inactive)	34.2 µM (inactive)	17.1 µM (inactive)	16.9 µM (inactive)	2.31 µM (inactive)	9.75 µM (inactive)	14.3 µM (inactive)	14.3 µM (inactive)	22 µM (inactive)	35 µM (inactive)	15.4 µM (inactive)	25.1 µM (inactive)	36 µM (inactive)		19.5 µM (inactive)	4.41 µM (inactive)	34.8 µM (inactive)	18.9 µM (inactive)	63 µM (inactive)	14.8 µM (inactive)
C[Si](C)(C)/C=C/CN1C(=O)CCC1=O	> 100 µM (inactive)	> 100 µM (inactive)	> 100 µM (inactive)	> 100 µM (inactive)	> 10 µM (inactive)		> 100 µM (inactive)	> 100 µM (inactive)		> 100 µM (inactive)	> 100 µM (inactive)	> 100 µM (inactive)	> 100 µM (inactive)	> 100 µM (inactive)	> 100 µM (inactive)	> 100 µM (inactive)	> 100 µM (inactive)	> 100 µM (inactive)	> 100 µM (inactive)	> 100 µM (inactive)
COc1cc(C2C(C(=O)O)=C(CO)Oc3cc4c(cc32)OCO4)cc(OC)c1O (configuration not stated)	> 100 µM (inactive)	> 100 µM (inactive)	> 100 µM (inactive)	> 100 µM (inactive)	> 100 µM (inactive)			> 100 µM (inactive)	> 100 µM (inactive)		> 100 µM (inactive)	> 100 µM (inactive)	> 100 µM (inactive)	> 100 µM (inactive)	> 100 µM (inactive)	> 100 µM (inactive)		> 100 µM (inactive)	> 100 µM (inactive)	> 100 µM (inactive)
COC(=O)c1cn(CC(O)CCl)nn1 (configuration not stated)	> 100 µM (inactive)	> 100 µM (inactive)		> 100 µM (inactive)	> 100 µM (inactive)		> 100 µM (inactive)	> 100 µM (inactive)	> 100 µM (inactive)	> 100 µM (inactive)	> 100 µM (inactive)	> 100 µM (inactive)	> 100 µM (inactive)	> 100 µM (inactive)	> 100 µM (inactive)	> 100 µM (inactive)	> 100 µM (inactive)	> 100 µM (inactive)	> 100 µM (inactive)	
CC(=O)OCC1OC(n2c3c(c(-c4ccco4)c(C#N)c2=S)CCC3)C(OC(C)=O)C(OC(C)=O)C1OC(C)=O (configuration not stated)	> 100 µM (inactive)	> 100 µM (inactive)	> 100 µM (inactive)	60.1 µM (inactive)	4.42 µM (inactive)			> 100 µM (inactive)		> 100 µM (inactive)	31.6 µM (inactive)	> 100 µM (inactive)	55.8 µM (inactive)	69.3 µM (inactive)	54.6 µM (inactive)	80.7 µM (inactive)	> 100 µM (inactive)	> 100 µM (inactive)	> 100 µM (inactive)	42.2 µM (inactive)
O=C(O)C12CCCCC1CCCC2 (configuration not stated)	> 100 µM (inactive)	> 100 µM (inactive)	> 100 µM (inactive)	> 100 µM (inactive)	> 100 µM (inactive)	> 100 µM (inactive)	> 100 µM (inactive)	> 100 µM (inactive)	> 100 µM (inactive)		> 100 µM (inactive)	> 100 µM (inactive)	> 100 µM (inactive)	> 100 µM (inactive)	> 100 µM (inactive)		> 100 µM (inactive)		> 100 µM (inactive)	> 100 µM (inactive)
ClCC1(CCl)COC1	> 100 µM (inactive)	> 100 µM (inactive)	> 100 µM (inactive)	> 100 µM (inactive)	> 100 µM (inactive)	> 100 µM (inactive)	> 100 µM (inactive)	> 100 µM (inactive)	> 100 µM (inactive)		> 100 µM (inactive)	> 100 µM (inactive)	> 100 µM (inactive)	> 100 µM (inactive)	> 100 µM (inactive)	> 100 µM (inactive)	> 100 µM (inactive)			
